Laboratory results from publication PMC8069166, “Identification of a Prenyl Chalcone as a Competitive Lipoxygenase Inhibitor: Screening, Biochemical Evaluation and Molecular Modeling Studies” (Molecules, 2021).
Entries after “also recorded” stand apart in the source; their conditions may differ. Like-named read-outs stand apart in the source and are kept apart here.

Key:
[1] = target: T1, soybean lipoxygenase-1 (LOX-1) (Glycine max, UniProt P08170); experiment: LOX-1 inhibition, spectrophotometric assay of conjugated diene formed by linoleic acid oxidation; assay type: biochemical
T1 construct: purchased Sigma-Aldrich, Brazil
T1 sequence (P08170 1-839): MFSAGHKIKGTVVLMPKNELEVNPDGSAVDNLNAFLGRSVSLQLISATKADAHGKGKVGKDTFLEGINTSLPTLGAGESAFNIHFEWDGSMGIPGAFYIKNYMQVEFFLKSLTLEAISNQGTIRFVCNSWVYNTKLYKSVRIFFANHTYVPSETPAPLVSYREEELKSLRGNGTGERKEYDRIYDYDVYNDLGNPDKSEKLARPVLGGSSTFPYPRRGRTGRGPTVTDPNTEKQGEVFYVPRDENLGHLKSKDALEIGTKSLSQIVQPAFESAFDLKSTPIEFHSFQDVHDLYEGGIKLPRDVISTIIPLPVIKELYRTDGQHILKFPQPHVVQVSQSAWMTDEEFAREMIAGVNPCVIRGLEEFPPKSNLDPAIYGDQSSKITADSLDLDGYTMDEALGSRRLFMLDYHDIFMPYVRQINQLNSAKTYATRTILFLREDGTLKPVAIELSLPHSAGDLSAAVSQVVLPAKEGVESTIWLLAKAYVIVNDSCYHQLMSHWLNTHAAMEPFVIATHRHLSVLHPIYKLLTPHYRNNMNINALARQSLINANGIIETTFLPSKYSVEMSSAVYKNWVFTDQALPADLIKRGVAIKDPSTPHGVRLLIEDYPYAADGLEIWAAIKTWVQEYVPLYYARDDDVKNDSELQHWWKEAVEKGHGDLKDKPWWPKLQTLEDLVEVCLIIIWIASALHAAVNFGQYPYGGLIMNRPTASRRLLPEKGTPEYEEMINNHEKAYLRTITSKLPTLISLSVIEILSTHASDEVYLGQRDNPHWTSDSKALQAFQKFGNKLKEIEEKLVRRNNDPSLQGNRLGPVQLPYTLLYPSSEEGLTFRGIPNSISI
Method: For the in vitro screening to identify the inhibitors of the enzymatic activity of LOX-1, a spectrophotometric assay was employed in order to measure the conjugated diene formed by linoleic acid oxidation. Soybean LOX-1, which converts linoleic acid to 13-hydroperoxylinoleic acid, is inhibited by NSAIDs in a qualitatively similar way to that of the rat mast cell line 5-LOX, and it may be used as a reliable screening target for this activity. The screening was performed with compounds from Brazilian biodiversity (NuBBEDB) and synthetic derivatives previously synthesized by using natural products as models. In this context, a variety of natural products were evaluated, such as triterpenes, chalcones, casearins, alkaloids, guanidines, and flavonoids.
(§1) The ability of chalcones 1–6 to act as LOX-1 inhibitors was evaluated according to a method from Ha et al. (2004). Initially, 2.910 mL Tris-HCl buffer ([…] (pH 8.0), Sigma-Aldrich, Brazil) was added to a quartz cuvette, followed by the addition of 25 μL LOX-1 (final concentration 1 μM, Sigma-Aldrich, Brazil) and 10 μL of the compounds tested (the final concentration ranged from 1 to 20 μM). The solution was incubated for 5 min at 25 °C. The reaction was started with the addition of linoleic acid (55 μL, 1 mM, Sigma-Aldrich, Brazil), and the LOX-1 activity was monitored at λ = 221 nm, pH 8.0, and 25 °C by an absorbance spectrophotometer in UV-Vis (Perkin Elmer Lambda 22, Waltham, MA, USA). For the determination of KM, varying substrate concentrations were used (linoleic acid, 13.7–91.7 µM) and 1 µM LOX-1. […] The spectrophotometric measurements at λ = 221 nm are associated with the conjugated double bonds formed from the linoleic acid substrate.

LOX-1 [2] = target: T2, LOX-1 (Glycine max, UniProt P08170); experiment: Oxygen consumption by the catalytic activity of LOX (polarography, O2-selective electrode); assay type: biochemical, soybean (Glycine max); conditions: compound at 10 µM, 25 °C
T2 sequence (P08170 1-839): T1 sequence (P08170 1-839)
Excerpt: A polarography-based assay was used to evaluate the rate of the oxygen consumption during LOX-1 inhibition, during which oxygen consumption is associated with the formation of a hydroperoxyl group [28]. In order to evaluate the decrease in oxygen consumption upon LOX-1 inhibition by the prenyl chalcone 6, an O2-selective electrode coupled to an oxygen monitoring probe was employed. […] The oxygen consumption was monitored using an O2-selective electrode coupled to a YSI 5300 Oxygen Monitor (Yellow Springs, OH, USA) at 25 °C. The reactions were initiated by adding O2 (100 μM), followed by the addition of LOX (20 nM) in 0.1 M Phosphate buffered saline (PBS), with pH 7.4 at 25 °C and the compounds being tested [32].

LOX-1 [3] = target: T2, LOX-1; experiment: Enzyme kinetics, mechanism of LOX-1 inhibition; assay type: biochemical, soybean (Glycine max)
Method: as §1

[4] = cited from earlier work
[5] = LOX-1 1 µM, linoleic acid substrate, pH 8.0, 25 °C, mean and standard deviation of three independent experiments, read-out: IC50 for the inhibition of lipoxygenase-1

## CC(C)=CCC/C(C)=C/CC/C(C)=C/COc1ccccc1/C=C/C(=O)c1ccccc1 [Compound 6, (E)-2-O-farnesyl chalcone]
[1]; [5]
  IC50: 5.7 ± 0.8 µM
[1]; ratio of IC50 values, versus compound 4
  fold more potent in LOX-1 inhibition than 2-O-prenyl chalcone (4): > 10 fold
LOX-1 [2]
  oxygen consumption during LOX-1 catalysis: delay of the oxygen consumption; also recorded: lower rate of oxygen consumption
LOX-1 [2]; listed as (E)-2-O-farnesyl chalcone
  oxygen consumption during LOX-1 catalysis: decreased the rate of oxygen consumption
LOX-1 [3]; LOX-1, enzyme kinetics
  mechanism of inhibition: competitive
LOX-1 [3]; increasing concentrations of 6 (5–10 µM), linoleic acid substrate
  Ki: 7 µM

## O=C(/C=C/c1cccc(O)c1)c1ccccc1 [Compound 2]
[1]; [5]
  IC50: > 50 µM

## O=C(/C=C/c1ccccc1O)c1ccccc1 [Compound 1]
[1]; [5]
  IC50: > 50 µM

## O=C(/C=C/c1ccc(O)cc1)c1ccccc1 [Compound 3, (E)-4-hydroxychalcone]
[1]
  IC50: > 50 µM

## CC(C)=CCOc1ccccc1/C=C/C(=O)c1ccccc1 [Compound 4, 2-O-prenyl chalcone]
[1]; [5]
  IC50: > 50 µM

## CC(C)=CCC/C(C)=C/COc1cccc(/C=C/C(=O)c2ccccc2)c1 [Compound 5, 3-O-geranyl chalcone]
[1]; [5]
  IC50: 11.8 ± 0.9 µM

## CC(Cc1ccc(O)c(O)c1)C(C)Cc1ccc(O)c(O)c1 (stereo not shown) [Nordihydroguaiaretic acid (NDGA), Nordihydroguaiaretic acid, reference compound]
LOX-1 [2]
  oxygen consumption during LOX-1 catalysis: lower rate of oxygen consumption
[4]
  toxicity on long-term use: liver damage and kidney dysfunction
